Assay results from PMC2154353 (The Journal of General Physiology, 2007).

Experiments:
[1] = molecular target: T1, MEC-4 homomeric channel (A713wt), coexpressed with MEC-2 (Caenorhabditis elegans, UniProt P24612); assay: two-electrode voltage clamp, oocytes, dose-response of current block; assay type: cell-based
T1 sequence (P24612 1-768): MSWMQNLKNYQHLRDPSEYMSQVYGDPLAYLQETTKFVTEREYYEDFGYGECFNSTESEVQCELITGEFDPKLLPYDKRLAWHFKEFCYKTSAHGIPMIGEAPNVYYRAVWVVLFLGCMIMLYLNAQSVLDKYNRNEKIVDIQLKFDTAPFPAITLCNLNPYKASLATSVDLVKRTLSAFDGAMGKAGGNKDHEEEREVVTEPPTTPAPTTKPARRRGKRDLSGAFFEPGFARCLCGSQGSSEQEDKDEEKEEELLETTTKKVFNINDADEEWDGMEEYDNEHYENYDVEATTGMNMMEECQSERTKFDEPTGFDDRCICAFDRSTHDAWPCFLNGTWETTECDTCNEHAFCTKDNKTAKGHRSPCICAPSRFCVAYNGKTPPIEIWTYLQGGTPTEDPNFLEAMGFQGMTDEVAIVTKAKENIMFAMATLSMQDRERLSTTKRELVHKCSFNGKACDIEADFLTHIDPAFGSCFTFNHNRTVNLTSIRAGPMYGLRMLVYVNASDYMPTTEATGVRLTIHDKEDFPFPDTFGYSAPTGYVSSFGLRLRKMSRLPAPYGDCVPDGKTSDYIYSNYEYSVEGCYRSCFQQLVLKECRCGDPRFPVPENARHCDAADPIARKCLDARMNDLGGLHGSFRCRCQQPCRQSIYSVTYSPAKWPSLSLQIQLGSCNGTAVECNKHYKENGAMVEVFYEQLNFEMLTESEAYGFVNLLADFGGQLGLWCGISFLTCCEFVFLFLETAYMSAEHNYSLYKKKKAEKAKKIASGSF
T1 sequence (Q27433 1-481 partner): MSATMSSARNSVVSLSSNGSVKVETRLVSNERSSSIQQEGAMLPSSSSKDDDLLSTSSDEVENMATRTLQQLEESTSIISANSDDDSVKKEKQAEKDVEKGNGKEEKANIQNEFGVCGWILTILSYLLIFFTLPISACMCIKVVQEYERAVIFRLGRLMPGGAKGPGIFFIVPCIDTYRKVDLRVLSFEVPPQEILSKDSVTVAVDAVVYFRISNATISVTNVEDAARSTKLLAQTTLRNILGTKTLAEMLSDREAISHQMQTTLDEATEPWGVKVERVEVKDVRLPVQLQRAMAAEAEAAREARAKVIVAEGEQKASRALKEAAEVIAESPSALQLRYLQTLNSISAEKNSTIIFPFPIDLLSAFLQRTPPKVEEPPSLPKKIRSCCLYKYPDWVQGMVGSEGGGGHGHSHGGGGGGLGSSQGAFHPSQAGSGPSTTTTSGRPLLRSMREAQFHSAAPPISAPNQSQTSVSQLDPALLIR

[2] = molecular target: T2, MEC-4 homomeric channel (A713wt), coexpressed with MEC-2 (Caenorhabditis elegans, UniProt P24612, A713T); assay: as above; assay type: cell-based
T2 sequence (P24612 1-768 A713T): T1 sequence (P24612 1-768)
T2 sequence (Q27433 1-481 partner): T1 sequence (Q27433 1-481 partner)

Ki [1] [µM]	Ki [2] [µM]	Structure (SMILES)
108 ± 3	196 ± 40	N=C(N)c1ccccc1 [benzamidine]
0.15 ± 0.01	0.83 ± 0.14	NC(=NCc1ccccc1)NC(=O)c1nc(Cl)c(N)nc1N [benzamil]
